24 compounds from patent US8569493B2 (Santen Pharmaceutical Co., Ltd., priority 2007, dated 2013) can be followed below.

Each structure is given as a SMILES string.

This test concerns the target T1, Recombinant human GR (Homo sapiens, UniProt P04150).
T1 construct: purchased Invitrogen P2816
T1 sequence (P04150 1-777): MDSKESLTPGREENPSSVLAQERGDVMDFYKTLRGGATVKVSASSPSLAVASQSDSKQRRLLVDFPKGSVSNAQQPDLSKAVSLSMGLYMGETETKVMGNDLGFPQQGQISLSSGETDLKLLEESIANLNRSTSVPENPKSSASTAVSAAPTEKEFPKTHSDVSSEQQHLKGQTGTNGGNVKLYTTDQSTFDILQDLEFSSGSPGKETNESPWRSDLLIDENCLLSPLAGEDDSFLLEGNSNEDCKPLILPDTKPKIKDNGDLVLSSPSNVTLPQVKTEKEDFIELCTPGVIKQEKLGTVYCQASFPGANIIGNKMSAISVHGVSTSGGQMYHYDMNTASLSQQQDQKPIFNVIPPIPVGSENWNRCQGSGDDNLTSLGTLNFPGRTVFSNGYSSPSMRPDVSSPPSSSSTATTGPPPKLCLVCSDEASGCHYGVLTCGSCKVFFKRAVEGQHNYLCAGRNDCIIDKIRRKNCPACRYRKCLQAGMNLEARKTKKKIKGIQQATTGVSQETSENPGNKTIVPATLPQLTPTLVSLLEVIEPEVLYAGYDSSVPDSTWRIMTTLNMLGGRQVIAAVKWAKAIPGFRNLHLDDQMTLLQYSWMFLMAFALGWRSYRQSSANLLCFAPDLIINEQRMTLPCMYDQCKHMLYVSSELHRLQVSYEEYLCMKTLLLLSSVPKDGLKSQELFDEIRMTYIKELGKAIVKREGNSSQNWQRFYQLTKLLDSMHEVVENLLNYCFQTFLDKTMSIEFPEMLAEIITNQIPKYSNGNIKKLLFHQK
The experiment in a line: GR competitor assay by fluorescence polarization (binding activity to glucocorticoid receptor). As to conditions: 20 μM test compound solution, 10 μL per well plus 5 μL 4×GS1 and 5 μL 4×GR; 2 to 4 hours at room temperature; ratio of 100% or more is indicated by 100%. The protocol:
1. Evaluation Test for Binding Activity to Glucocorticoid Receptor (hereinafter referred to as “GR”)
In order to evaluate a binding activity to GR, a receptor competitor assay was carried out by a fluorescence polarization method. In the assay, a GR competitor assay kit (manufactured by Invitrogen, cat No. P2816) was used, and a procedure was carried out according to the protocol attached to the kit. Hereinafter, the specific method will be described.
(Preparation of Reagents)
GR screening buffer: A buffer containing 10 mM potassium phosphate (pH 7.4), 20 mM sodium molybdate (Na2MoO4), 0.1 mM ethylene diamine tetraacetic acid (EDTA), 5 mM dithiothreitol (DTT), 0.1 mM stabilizing peptide and 2% dimethylsulfoxide was prepared.
4×GS1 solution: Fluormone™ GS1, which is a fluorescent glucocorticoid ligand, was diluted with GR screening buffer, whereby a 4 nM solution was prepared.
4×GR solution: Recombinant human GR was diluted with GR screening buffer, whereby a 16 nM solution was prepared.
(Preparation of Test Compound Solution)
After a test compound was dissolved in dimethylsulfoxide, it was diluted with GR screening buffer, whereby a 20 μM test compound solution was prepared.
(Test Method and Measurement Method)
1) The test compound solution was added in an amount of 10 μL into each well of a 384-well plate, and then, 4×GS1 solution and 4×GR solution were added in an amount of 5 μL into each well, respectively.
2) The plate was incubated in a dark place at room temperature for 2 to 4 hours.
3) By using a multimode plate reader, Analyst™ HT (manufactured by LJL Biosystems), fluorescence polarization of each well was measured. As the blank, a well containing GR screening buffer in place of the test compound and 4×GS1 solution was used.
4) The same procedure as that in the above 1) to 3) was carried out except that GR screening buffer was used in place of the test compound solution, and the obtained result was taken as the negative control.
5) The same procedure as that in the above 1) to 3) was carried out except that 2 mM dexamethasone was used in place of the test compound solution, and the obtained result was taken as the positive control.
(Calculation Equation of GR Binding Ratio)
A GR binding ratio (%) was calculated from the following equation. GR binding ratio(%)=100×[1−(fluorescence polarization of test compound solution−fluorescence polarization of positive control solution)/(fluorescence polarization of negative control solution−fluorescence polarization of positive control solution)] (Test Results and Discussion)
In general terms: Polarisation of emitted light reports the rotation of a fluorescent probe.
Broadly, the inhibition is the percentage by which the read-out fell short of the control. For `COc1ccc([N+](=O)[O-])cc1OCc1c(-c2ccc(OS(=O)(=O)C3CCCC3)cc2OC)ccc2c1N(C)C(=O)C(C)(C)N2` [Compound 1-41], the inhibition at 10 µM turned out to be 100%. The figure for `COc1ccc([N+](=O)[O-])cc1OCc1c(-c2ccc(OS(=O)(=O)C(C)C)cc2OC)ccc2c1N(C)C(=O)C(C)(C)N2` [Compound 1-42] is 100%. As for `COc1ccc([N+](=O)[O-])cc1OCc1c(-c2ccc(OS(=O)(=O)C3CC3)cc2OC)ccc2c1N(C)C(=O)C(C)(C)N2` [Compound 1-43], the inhibition at 10 µM worked out at 100%.

`CCCS(=O)(=O)Oc1ccc(-c2ccc3c(c2COc2cc([N+](=O)[O-])ccc2OC)N(C)C(=O)C(C)(C)N3)c(OC)c1` [Compound 1-44]: the inhibition at 10 µM was determined as 93%. The figure for `COc1cc(OS(=O)(=O)C2CC2)ccc1-c1ccc2c(c1COc1cc([N+](=O)[O-])ccc1C)N(C)C(=O)C(C)(C)N2` [Compound 1-45] is 94%.

In the case of `COc1cc(OS(=O)(=O)CCC(F)(F)F)ccc1-c1ccc2c(c1COc1cc([N+](=O)[O-])ccc1C)N(C)C(=O)C(C)(C)N2` [Compound 1-46], the inhibition at 10 µM came to 95%. The figure for `COc1cc(OS(=O)(=O)C2CCCC2)ccc1-c1ccc2c(c1COc1cc([N+](=O)[O-])ccc1C)N(C)C(=O)C(C)(C)N2` [Compound 1-50] is 98%; for `COc1cc(OS(=O)(=O)CCCCl)ccc1-c1ccc2c(c1COc1cc(F)ccc1C)N(C)C(=O)C(C)(C)N2` [Compound 1-54, 7-[4-(3-chloropropylsulfonyloxy)-2-methoxyphenyl]-8-(5-fluoro-2-methylphenoxymethyl)-1,3,3-trimethyl-3,4-dihydro-1H-quinoxalin-2-one] it is 99%. For the compound `COc1cc(OS(=O)(=O)C2CCCC2)ccc1-c1ccc2c(c1CNc1cc(F)ccc1C)N(C)C(=O)C(C)(C)N2` [Compound 1-57], the inhibition at 10 µM worked out at 93%.

On to `CCCS(=O)(=O)Oc1ccc(-c2ccc3c(c2CNc2cc(F)ccc2C)N(C)C(=O)C(C)(C)N3)c(OC)c1` [Compound 1-58], for which the inhibition at 10 µM stood at 100%.

Turning to `COc1ccccc1NCc1c(-c2ccc(OS(C)(=O)=O)cc2OC)ccc2c1N(C)C(=O)C(C)(C)N2` [Compound 2-1, 7-(2-Methoxy-4-methylsulfonyloxyphenyl)-8-(2-methoxyphenylaminomethyl)-1,3,3-trimethyl-3,4-dihydro-1H-quinoxalin-2-one], the inhibition at 10 µM was determined as 95%. The result for `COc1ccccc1NCc1c(-c2ccc(OS(=O)(=O)c3ccccc3)cc2OC)ccc2c1N(C)C(=O)C(C)(C)N2` [Compound 2-2, 8-(2-Methoxyphenylaminomethyl)-7-(2-methoxy-4-phenylsulfonyloxyphenyl)-1,3,3-trimethyl-3,4-dihydro-1H-quinoxalin-2-one] reads 89%; that for `COc1ccccc1NCc1c(-c2ccc(OS(=O)(=O)C3CC3)cc2OC)ccc2c1N(C)C(=O)C(C)(C)N2` [Compound 2-3], 93%; that for `COc1ccccc1NCc1c(-c2ccc(OS(=O)(=O)CCC(F)(F)F)cc2OC)ccc2c1N(C)C(=O)C(C)(C)N2` [Compound 2-4, 8-(2-Methoxyphenylaminomethyl)-7-[2-methoxy-4-(3,3,3-trifluoropropylsulfonyloxy)phenyl]-1,3,3-trimethyl-3,4-dihydro-1H-quinoxalin-2-one], 91%. The figure for `COc1ccccc1NCc1c(-c2ccc(OS(=O)(=O)CC(C)C)cc2OC)ccc2c1N(C)C(=O)C(C)(C)N2` [Compound 2-5, 7-(4-Isobutylsulfonyloxy-2-methoxyphenyl)-8-(2-methoxyphenylaminomethyl)-1,3,3-trimethyl-3,4-dihydro-1H-quinoxalin-2-one] is 97%; for `COc1ccccc1NCc1c(-c2ccc(OS(=O)(=O)C(C)C)cc2OC)ccc2c1N(C)C(=O)C(C)(C)N2` [Compound 2-6, 7-(4-Isopropylsulfonyloxy-2-methoxyphenyl)-8-(2-methoxyphenylaminomethyl)-1,3,3-trimethyl-3,4-dihydro-1H-quinoxalin-2-one] it is 100%; for `COc1ccccc1NCc1c(-c2ccc(OS(=O)(=O)C3CCCC3)cc2OC)ccc2c1N(C)C(=O)C(C)(C)N2` [Compound 2-7, 7-(4-Cyclopentylsulfonyloxy-2-methoxyphenyl)-8-(2-methoxyphenylaminomethyl)-1,3,3-trimethyl-3,4-dihydro-1H-quinoxalin-2-one] it is 99%.

For `CCCS(=O)(=O)Oc1ccc(-c2ccc3c(c2CNc2ccccc2OC)N(C)C(=O)C(C)(C)N3)c(OC)c1` [Compound 2-8, 8-(2-Methoxyphenylaminomethyl)-7-(2-methoxy-4-propylsulfonyloxyphenyl)-1,3,3-trimethyl-3,4-dihydro-1H-quinoxalin-2-one], the inhibition at 10 µM is 98%.

For `COc1cc(OS(=O)(=O)CCCNCc2ccccc2)ccc1-c1ccc2c(c1COc1cc(F)ccc1C)N(C)C(=O)C(C)(C)N2` [Compound 3-1, 7-[4-(3-Benzylaminopropylsulfonyloxy)-2-methoxyphenyl]-8-(5-fluoro-2-methylphenoxymethyl)-1,3,3-trimethyl-3,4-dihydro-1H-quinoxalin-2-one], the inhibition at 10 µM was found to be 94%. The result for `CCCNCCCS(=O)(=O)Oc1ccc(-c2ccc3c(c2COc2cc(F)ccc2C)N(C)C(=O)C(C)(C)N3)c(OC)c1` [Compound 3-2, 8-(5-Fluoro-2-methylphenoxymethyl)-7-[2-methoxy-4-(3-propylaminopropylsulfonyloxy)phenyl]-1,3,3-trimethyl-3,4-dihydro-1H-quinoxalin-2-one] reads 100%; that for `COc1cc(OS(=O)(=O)CCCN2CCOCC2)ccc1-c1ccc2c(c1COc1cc(F)ccc1C)N(C)C(=O)C(C)(C)N2` [Compound 3-3, 8-(5-Fluoro-2-methylphenoxymethyl)-7-[2-methoxy-4-[3-(morpholin-4-yl)propylsulfonyloxy]phenyl]-1,3,3-trimethyl-3,4-dihydro-1H-quinoxalin-2-one], 100%; that for `COc1cc(OS(=O)(=O)CCCN2CCCCC2)ccc1-c1ccc2c(c1COc1cc(F)ccc1C)N(C)C(=O)C(C)(C)N2` [Compound 3-4], 71%.

As to `COc1cc(OS(=O)(=O)CCCN(C)CCN(C)C)ccc1-c1ccc2c(c1COc1cc(F)ccc1C)N(C)C(=O)C(C)(C)N2` [Compound 3-5, 7-[4-[3-[N-(2-Dimethylaminoethyl)-N-methylamino]propylsulfonyloxy]-2-methoxyphenyl]-8-(5-fluoro-2-methylphenoxymethyl)-1,3,3-trimethyl-3,4-dihydro-1H-quinoxalin-2-one], the inhibition at 10 µM was 100%. For the compound `CNCCN(C)CCCS(=O)(=O)Oc1ccc(-c2ccc3c(c2COc2cc(F)ccc2C)N(C)C(=O)C(C)(C)N3)c(OC)c1` [Compound 3-6, 8-(5-Fluoro-2-methylphenoxymethyl)-7-[2-methoxy-4-[3-[N-(2-methylaminoethyl)-N-methylamino]propylsulfonyloxy]phenyl]-1,3,3-trimethyl-3,4-dihydro-1H-quinoxalin-2-one], the inhibition at 10 µM was found to be 99%.
